Test results as given in PMC7897990, “TriTOX: A novel Trichomonas vaginalis assay platform for high-throughput screening of compound libraries” (International Journal for Parasitology: Drugs and Drug …, 2021).
Read-outs that look alike come from different tables or passages of the source. Starred links: 1 amine or outer side, 2 acyl side, 3 side chain; linkers in the order of their positions; H or OH if unused. Positions of bridges follow the written chain, without caps; N, C: chain ends. Non-standard residues stand in square brackets, D forms with d. Residues, ends and D or L forms follow the SMILES beside them. ξ: configuration not given here. *: point of attachment. hTyr(3S-OH,4S-OH,3'-OSO3H) = N[C@H](C(=O)O)[C@H](O)[C@@H](O)c1ccc(O)c(OS(=O)(=O)O)c1; pTerphenylCO(4''-OnC5H11) = CCCCCOc1ccc(-c2ccc(-c3ccc(C(=O)*)cc3)cc2)cc1; Orn(4R-OH,5R-OH) = O=C([C@H](C[C@@H](O)[C@@H](O)N[*:3])N[*:1])[*:2]; ξOrn(4,5-diOH) = O=C(C(CC(O)C(O)N[*:3])N[*:1])[*:2]; ξhTyr(βξ-OH,γξ-OH) = NC(C(=O)O)C(O)C(O)c1ccc(O)cc1; Pro(3S-OH,4S-Me) = C[C@H]1CN[C@H](C(=O)O)[C@H]1O; Gln(3R-OH) = NC(=O)C[C@@H](O)[C@H](N)C(=O)O; ξPro(3ξ-OH,4ξ-Me) = CC1CNC(C(=O)O)C1O; Hyp = O=C(O)[CH]1C[CH](O)CN1

Assays:
[1] = test system: Trichomonas vaginalis G3 trophozoites; conditions: for T.vaginalis_Absorbance_Rep1: replicate 1, raw absorbance; for T.vaginalis_Absorbance_Rep2: replicate 2, raw absorbance
[2] = test system: nontumorigenic neonatal foreskin fibroblast (NFF) cell line
[3] = replicate 1, parasite screen at 1 µg/mL
[4] = replicate 2, parasite screen at 1 µg/mL
[5] = HTS single concentration, parasite screen 1 µg/mL, replicate 1
[6] = HTS single concentration, parasite screen 1 µg/mL, replicate 2
[7] = NFF_NS1 screen 5 µg/mL, single concentration
[8] = HTS, parasite screen at 1 µg/mL, replicate 1
[9] = HTS, parasite screen at 1 µg/mL, replicate 2
[10] = NFF fibroblast screen at 5 µg/mL, A = active, I = inactive
[11] = HTS, parasite screen at 1 µg/mL

Compound: C[C@H]1NC(=O)[C@@H]2CCCCN2C(=O)CN(C)C(=O)CNC(=O)[C@@H]2CCCCN2C(=O)[C@H](NC(=O)c2nc3ccccc3cc2O)[C@@H](C)NC(=O)[C@@H]2CCCCN2C(=O)CN(C)C(=O)CNC(=O)[C@@H]2CCCCN2C(=O)[C@@H]1NC(=O)c1nc2ccccc2cc1O [Quinaldopeptin]
- T.vaginalis_%inb_Rep1 ([1]; HTS replicate 1, parasite screen 1 µg/mL): 92.82%
- T.vaginalis_%inb_Rep2 ([1]; HTS replicate 2, parasite screen 1 µg/mL): 95.37%
- NFF_Activity ([2]; NFF fibroblasts, single concentration 5 µg/mL): I (otherwise these were reported as inactive (I))

Compound: C=C1c2c(Cl)ccc(O)c2C(O)=C2C(=O)C3(O)C(O)=C(C(N)=O)C(=O)C(N(C)C)C3C(O)C12 (stereo not drawn) [BIA-M1464]
- T.vaginalis_%inb_Rep1 [1, 3]: 17.14%
- T.vaginalis_%inb_Rep2 [1, 4]: 5.39%
- NFF_Activity ([2]; NFF cells, screen at 5 µg/mL): I (otherwise these were reported as inactive (I))

Compound: COC1C=CC=C(C)C(=O)NC2=CC(=O)C=C(C2=O)C(OC)C(C)CC(OC)C(OC)C(C)C=C(C)C1OC(N)=O (stereo not drawn) [BIA-H1036]
- T.vaginalis_%inb_Rep1 [1, 3]: 12.63%
- T.vaginalis_%inb_Rep2 [1, 4]: 12.64%
- NFF_Activity ([2]; NFF cells, screen at 5 µg/mL): I (otherwise these were reported as inactive (I))

Compound: CC(C)[C@@H]1OC(=O)[C@@H](Cc2ccccc2)N(C)C(=O)[C@H](C(C)C)OC(=O)[C@@H](Cc2ccccc2)N(C)C(=O)[C@H](C(C)C)OC(=O)[C@@H](Cc2ccccc2)N(C)C1=O [BIA-B1238]
- T.vaginalis_%inb_Rep1 [1, 5]: 16.21%
- T.vaginalis_%inb_Rep2 [1, 6]: 4.70%
- NFF_Activity [2, 7]: I (otherwise these were reported as inactive (I))

Compound: Cc1cc(O)c(O)c2oc(=O)c3c(O)cc(O)cc3c12 [BIA-H1558]
- T.vaginalis_%inb_Rep1 [1, 3]: 10.09%
- T.vaginalis_%inb_Rep2 [1, 4]: 9.24%
- NFF_Activity ([2]; NFF cells, screen at 5 µg/mL): I (otherwise these were reported as inactive (I))

Compound: COC(=O)C1(O)CC2OC1(C)n1c3ccccc3c3c4c(c5c6ccccc6n2c5c31)C(=O)NC4 (stereo not drawn) [BIA-K1225]
- T.vaginalis_%inb_Rep1 [1, 3]: 61.16%
- T.vaginalis_%inb_Rep2 [1, 4]: 66.84%
- NFF_Activity ([2]; NFF cells, screen at 5 µg/mL): A (active (A) compounds having >25% inhibitory activity)

Compound: CCC1OC(=O)CC(O)C(C)C(OC2OC(C)C(O)C(N(C)C)C2O)C(CCN2CC(C)CC(C)C2)CC(C)C(=O)C=CC(C)=CC1COC1OC(C)C(O)C(OC)C1OC.O=P(O)(O)O (stereo not drawn) [Tilmicosin phosphate]
- T.vaginalis_%inb_Rep1 [1, 8]: 8.60%
- T.vaginalis_%inb_Rep2 [1, 9]: 12.37%
- NFF_Activity [2, 10]: I (otherwise these were reported as inactive (I))

Compound: CC[C@]1(C)C[C@@H](OC(=O)CSc2n[nH]c(N)n2)[C@]2(C)[C@H](C)CC[C@]3(CCC(=O)[C@H]32)[C@@H](C)[C@@H]1O [BIA-A1489]
- T.vaginalis_%inb_Rep1 [1, 5]: 14.65%
- T.vaginalis_%inb_Rep2 [1, 6]: 19.67%
- NFF_Activity [2, 7]: I (otherwise these were reported as inactive (I))

Compound: C=CC(C)(C)C12CC3C(=O)Nc4ccccc4C(=O)N3C1N(C(C)=O)c1ccccc12 (stereo not drawn) [BIA-A1687]
- T.vaginalis_%inb_Rep1 [1, 5]: 18.36%
- T.vaginalis_%inb_Rep2 [1, 6]: 16.20%
- NFF_Activity [2, 7]: I (otherwise these were reported as inactive (I))

Compound: COc1ccc([C@@H]2CC(=O)c3c(O)cc(O[C@@H]4O[C@H](CO[C@@H]5O[C@@H](C)[C@H](O)[C@@H](O)[C@H]5O)[C@@H](O)[C@H](O)[C@H]4O)cc3O2)cc1O [BIA-H1766]
- T.vaginalis_%inb_Rep1 [1, 3]: 15.42%
- T.vaginalis_%inb_Rep2 [1, 4]: 4.23%
- NFF_Activity ([2]; NFF cells, screen at 5 µg/mL): I (otherwise these were reported as inactive (I))

Compound: CC1OC(OC2C(CO)OC(OC3C(CO)OC(O)C(O)C3O)C(O)C2O)C(O)C(O)C1NC1C=C(CO)C(O)C(O)C1O (stereo not drawn) [BIA-A1231]
- T.vaginalis_%inb_Rep1 [1, 5]: 14.16%
- T.vaginalis_%inb_Rep2 [1, 6]: 6.22%
- NFF_Activity [2, 7]: I (otherwise these were reported as inactive (I))

Compound: Cc1c2c(c(O)c3c(O)ccc(Cl)c13)C(=O)[C@]1(O)C(O)=C(C(N)=O)C(=O)[C@@H](N(C)C)[C@@H]1C2.Cl [BIA-A1552]
- T.vaginalis_%inb_Rep1 [1, 5]: 13.30%
- T.vaginalis_%inb_Rep2 [1, 6]: 11.71%
- NFF_Activity [2, 7]: I (otherwise these were reported as inactive (I))

Compound: CCCC[C@H]1C(=O)O[C@H](C)[C@H](NC(=O)c2cccc(NC=O)c2O)C(=O)O[C@@H](C)[C@@H]1OC(=O)CC(C)C [BIA-A1444]
- T.vaginalis_%inb_Rep1 [1, 5]: 12.87%
- T.vaginalis_%inb_Rep2 [1, 6]: 14.61%
- NFF_Activity [2, 7]: I (otherwise these were reported as inactive (I))

Compound: CC[C@H]1OC(=O)[C@H](C)[C@@H](O[C@H]2C[C@@](C)(OC)[C@@H](O)[C@H](C)O2)[C@H](C)[C@@H](O[C@@H]2O[C@H](C)C[C@H](N(C)C)[C@H]2O)[C@](C)(O)C[C@@H](C)CN(C)[C@H](C)[C@@H](O)[C@]1(C)O [BIA-A1312]
- T.vaginalis_%inb_Rep1 [1, 5]: 6.35%
- T.vaginalis_%inb_Rep2 [1, 6]: 11.21%
- NFF_Activity [2, 7]: I (otherwise these were reported as inactive (I))

Compound: COc1cc(/C=C/C(=O)O)ccc1O [Ferulic acid]
- T.vaginalis_%inb_Rep1 [1, 8]: 13.69%
- T.vaginalis_Absorbance_Rep1 [1, 11]: 0.972
- T.vaginalis_%inb_Rep2 [1, 9]: 12.64%
- T.vaginalis_Absorbance_Rep2 [1, 11]: 0.832
- NFF_Activity ([2]; NFF_NS1 screen at 5 µg/mL): I (otherwise these were reported as inactive (I))

Compound: CCCCCCCCCCCCCCCc1cc(O)cc(O)c1 [BIA-A1689]
- T.vaginalis_%inb_Rep1 [1, 5]: 16.26%
- T.vaginalis_%inb_Rep2 [1, 6]: 11.86%
- NFF_Activity [2, 7]: I (otherwise these were reported as inactive (I))

Compound: CC(=O)Nc1c2sscc-2n(C)c1=O [BIA-T1138]
- T.vaginalis_%inb_Rep1 ([1]; parasite screen at 1 µg/mL, replicate 1): 100.00%
- T.vaginalis_%inb_Rep2 ([1]; parasite screen at 1 µg/mL, replicate 2): 97.56%
- NFF_Activity ([2]; NFF_NS1 screen at 5 µg/mL, NFF cells): A (active (A) compounds having >25% inhibitory activity)

Compound: CN1C(=O)c2ccccc2-n2c(nc3ccccc3c2=O)C1Cc1ccccc1 (stereo not drawn) [BIA-B1647]
- T.vaginalis_%inb_Rep1 [1, 5]: 16.42%
- T.vaginalis_%inb_Rep2 [1, 6]: 13.38%
- NFF_Activity [2, 7]: I (otherwise these were reported as inactive (I))

Compound: Viridicatumtoxin
- T.vaginalis_%inb_Rep1 [1, 8]: 8.70%
- T.vaginalis_%inb_Rep2 [1, 9]: 2.74%
- NFF_Activity [2, 10]: I (otherwise these were reported as inactive (I))

Compound: COc1cc2c(c3oc(=O)c4c(c13)CCOC4=O)[C@@H]1C=CO[C@@H]1O2 [BIA-A1234]
- T.vaginalis_%inb_Rep1 [1, 5]: 14.70%
- T.vaginalis_%inb_Rep2 [1, 6]: 13.02%
- NFF_Activity [2, 7]: I (otherwise these were reported as inactive (I))

Compound: C[C@@H](O)[C@@H]1NC(=O)[C@@H](N)C[C@@H](O)[C@@H](O)NC(=O)[C@@H]2[C@@H](O)[C@@H](C)CN2C(=O)[C@H]([C@H](O)CC(N)=O)NC(=O)[C@H]([C@H](O)[C@@H](O)c2ccc(O)c(OS(=O)(=O)O)c2)NC(=O)[C@@H]2C[C@@H](O)CN2C1=O [FR 179642] (H-[Orn(4R-OH,5R-OH)]T[Hyp][hTyr(3S-OH,4S-OH,3'-OSO3H)][Gln(3R-OH)][Pro(3S-OH,4S-Me)]; lactam 1-C)
- T.vaginalis_%inb_Rep1 [1, 8]: 12.98%
- T.vaginalis_Absorbance_Rep1 [1, 11]: 0.95
- T.vaginalis_%inb_Rep2 [1, 9]: 14.17%
- T.vaginalis_Absorbance_Rep2 [1, 11]: 0.816
- NFF_Activity ([2]; NFF_NS1 screen at 5 µg/mL): I (otherwise these were reported as inactive (I))

Compound: CCCCCOc1ccc(-c2ccc(-c3ccc(C(=O)NC4CC(O)C(O)NC(=O)C5C(O)C(C)CN5C(=O)C(C(C)O)NC(=O)C(C(O)C(O)c5ccc(O)cc5)NC(=O)C5CC(O)CN5C(=O)C(C(C)O)NC4=O)cc3)cc2)cc1 (stereo not drawn) [BIA-A1423] ({pTerphenylCO(4''-OnC5H11)}-[ξOrn(4,5-diOH)]T[Hyp][ξhTyr(βξ-OH,γξ-OH)]T[ξPro(3ξ-OH,4ξ-Me)]; lactam 1-C; configuration not given here)
- T.vaginalis_%inb_Rep1 [1, 5]: 14.75%
- T.vaginalis_%inb_Rep2 [1, 6]: 12.08%
- NFF_Activity [2, 7]: I (otherwise these were reported as inactive (I))

Compound: Dihydrocyclosporin A
- T.vaginalis_%inb_Rep1 [1, 8]: 11.52%
- T.vaginalis_Absorbance_Rep1 [1, 11]: 0.923
- T.vaginalis_%inb_Rep2 [1, 9]: 13.52%
- T.vaginalis_Absorbance_Rep2 [1, 11]: 0.807
- NFF_Activity ([2]; NFF_NS1 screen at 5 µg/mL): I (otherwise these were reported as inactive (I))
